According to patent publication US20260053146A1 (priority 2024, published 2026):
≈ marks a conversion by molar mass, not a printed value.

Columns and labels:
physchem = settings: pH 5.6
CLas = assay type: in vivo, Candidatus Liberibacter asiaticus; settings: CLas-infected citron leaves, petioles soaked with 200 ng in buffer; D. citri nymphs 21 days; versus buffer control

| Compound | MIC (L. crescens BT-1) [µg/mL] | solubility (physchem) [mg/mL] | ability of bacteria in treated leaves to infect psyllid nymphs (CLas abundance in adult psyllids, FIG. 4) (CLas) |
| --- | --- | --- | --- |
| CC[C@H](C)[C@H](NC(=O)[C@H](CC(=O)O)NC(=O)[C@H](Cc1ccccc1)NC(C)=O)C(=O)N[C@@H](CCSC)C(=O)NCC(=O)N[C@@H](CC(C)C)C(=O)N[C@H](C(=O)N[C@@H](CCCCN)C(=O)N[C@@H](CCCCN)C(=O)N[C@H](C(=O)N[C@@H](C)C(=O)NCC(=O)N[C@@H](C)C(=O)N[C@@H](CC(C)C)C(N)=O)C(C)C)[C@@H](C)CC [EMP-ER, FDIMGLIKKVAGAL] | 200 (≈ 0.132 mM) | ≥ 10 |  |
| Ac-FDVMGIIKKIAGAL-NH2 [EMP-EF, FDVMGIIKKIAGAL] | 200 | < 5 |  |
| Ac-GRILSFIKGLAEHL-NH2 [EMP-OD, GRILSFIKGLAEHL] | 400 | > 20 |  |
| Ac-IDWLKLGKMVMDVL-NH2 [Venom_protein_13b, IDWLKLGKMVMDVL] | 200 | < 5 |  |
| Ac-INLKAIAAFAKKLL-NH2 [Mastoparan-T, INLKAIAAFAKKLL] | 200 | > 20 |  |
| Ac-INLKAIAALARNY-NH2 [Mastoparan-VT7, INLKAIAALARNY] | >200 | < 5 |  |
| Ac-INLKAIAALVKKLL-NH2 [Mastoparan-VT6] | 100 | > 20 |  |
| Ac-INLKAIAAMAKKLL-NH2 [Mastoparan-like_12d, INLKAIAAMAKKLL] | 400 | > 20 |  |
| Ac-INLKAIAPLAKKLL-NH2 [Mastoparan-VT4, INLKAIAPLAKKLL] |  | > 20 |  |
| Ac-INLKAITALAKKLL-NH2 [Mastoparan-VT3, INLKAITALAKKLL] | 400 | ≥ 10 |  |
| Ac-INLLKIAKGIIKSL-NH2 [EMP-AF, INLLKIAKGIIKSL] | 1000 | > 20 |  |
| Ac-INMKASAAVAKKLL-NH2 [MP-VB1t, INMKASAAVAKKLL] | >1000 | > 20 |  |
| Ac-INWKGIAAMAKKLL-NH2 [Mastoparan-X, INWKGIAAMAKKLL] | 1000 | > 20 |  |
| Ac-INWKGIAAMKKLL-NH2 [Mastoparan-like_12b, INWKGIAAMKKLL] | >1000 | > 20 |  |
| Ac-INWKKIASIGKEVLKAL-NH2 [PMM, INWKKIASIGKEVLKAL] | 200 | > 20 |  |
| Ac-INWKKIFEKVKNLV-NH2 [PDD-A, INWKKIFEKVKNLV] | 200 | > 20 |  |
| Ac-INWKKIKSIIKAAMN-NH2 [Mastoparan-V1, INWKKIKSIIKAAMN] | 400 | > 20 |  |
| Ac-INWKKIKSLIKAAMS-NH2 [Mastoparan-V2, INWKKIKSLIKAAMS] | 200 | > 20 |  |
| Ac-INWKKMAATALKMI-NH2 [Parapolybia-MP, INWKKMAATALKMI] | >1000 | > 20 |  |
| Ac-INWLKLGKKILGAI-NH2 [Mastoparan-R1, INWLKLGKKILGAI] | 200 | > 20 |  |
| Ac-INWLKLGKKILGAL-NH2 [PDD-B, INWLKLGKKILGAL] | 1000 | > 20 |  |
| Ac-INWLKLGKKMMSAL-NH2 [MP, INWLKLGKKMMSAL] | 1000 | > 20 |  |
| Ac-INWLKLGKMVIDAL-NH2 [Polybia-MPII, INWLKLGKMVIDAL] | 400 | > 20 |  |
| Ac-INWLKLGKQILGAL-NH2 [Mastoparan-R3, INWLKLGKQILGAL] | 400 | > 20 |  |
| Ac-LKLLGIVKKVLGAI-NH2 [EMP-EM2, LKLLGIVKKVLGAI] | 200 | < 5 |  |
| Ac-LKLMGIVKKVLGAL-NH2 [EMP-EM1, LKLMGIVKKVLGAL] | 200 | ≥ 10 |  |
| Ac-LNFKALAALAKKIL-NH2 [Mastoparan-R2, LNFKALAALAKKIL] | 200 | > 20 |  |
| Ac-NLKAIAALAKKLL-NH2 [Mastoparan-VT2, NLKAIAALAKKLL] | 400 | > 20 |  |
| Ac-VIVKAIATLSKKLL-NH2 [Mastoparan-VT5, VIVKAIATLSKKLL] | >1000 | > 20 |  |
| polymyxin B [PMB, reference compound] |  |  | less able to infect the psyllid nymphs |
